US9545453B2, “CXCR4 inhibiting carriers for nucleic acid delivery” (Wayne State University, priority 2011, dated 2017)
Entries after “also recorded” stand apart in the source; their conditions may differ. One block for each compound: values may come before it.

Columns and labels:
[1] = biological target: T1, CXCR4 (Homo sapiens, UniProt P61073); assay: Phorbol myristate acetate-stimulated CXCR4 internalization; type: cell-based; settings: 100 ng/mL phorbol myristate acetate
From the text: It has been reported that CXCL12 and phorbol esters trigger CXCR4 internalization through entirely different uptake pathway (Signoret, Oldridge et al. 1997).
Target sequence in this assay (P61073 whole entry): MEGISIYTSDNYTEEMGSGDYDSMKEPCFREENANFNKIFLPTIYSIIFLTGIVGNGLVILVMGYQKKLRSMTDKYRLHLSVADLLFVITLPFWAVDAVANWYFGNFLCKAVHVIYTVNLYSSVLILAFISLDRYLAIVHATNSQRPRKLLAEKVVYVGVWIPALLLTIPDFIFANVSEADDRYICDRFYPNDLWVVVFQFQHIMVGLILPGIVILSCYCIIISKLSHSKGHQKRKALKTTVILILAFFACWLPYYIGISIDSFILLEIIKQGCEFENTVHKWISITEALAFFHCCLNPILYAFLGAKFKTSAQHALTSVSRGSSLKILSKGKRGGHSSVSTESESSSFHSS

[2] = biological target: T1, CXCR4; assay: CXCL12-induced intracellular calcium flux (Fluo-3); type: cell-based; settings: Fluo-3 calcium indicator, CXCL12 stimulation
From the text: Binding of chemokine CXCL12 to its receptor CXCR4 triggers an intracellular signal transduction cascade comprising a transient increase in cytosolic free calcium.
Target sequence in this assay (P61073 whole entry, species assumed): as the sequence (P61073 whole entry) above

[3] = complexes with nucleic acids
From the text: Ability to condense DNA is a prerequisite for successful polyplex gene delivery. FIG. 1 schematically represents this process.

[4] = system: pDNA; assay: DNA condensation by ethidium bromide exclusion assay; type: physicochemical; settings: pH 7.4
Protocol: (§1) The ability of P(AMD-CBA) to condense pDNA was determined by ethidium bromide exclusion (EtBr) assay by measuring the changes in EtBr/pDNA fluorescence. pDNA solution at a concentration of 20 μg/mL was mixed with EtBr (1 μg/mL) and fluorescence was measured and set to 100% using an excitation wavelength of 540 nm and an emission wavelength of 590 nm. Fluorescence readings were taken following a stepwise addition of the polycation solution, and the condensation curve for each polycation was constructed.
as §1, with “P(Cyc-CBA)” for “P(AMD-CBA)”
At pH 7.4, a w/w ratio above 2 was required for RPA to fully condense the DNA, which was higher than that required in case of RHB (w/w 1) and PEI (w/w 0.5). […] The redox stability of RPA/DNA polyplexes was tested by agarose gel electrophoresis after GSH treatment.

[5] = system: CXCR4+U2OS cells; assay: Matrigel cell invasion assay towards CXCL12; type: cell-based, Human; settings: CXCL12-mediated invasion, 16 h
Protocol: The upper sides of the transwell inserts were coated with 40 μl Matrigel diluted in serum-free medium (v/v 1:3) per insert. The 24-well plates with coated inserts were then placed in 37° C. incubator for 2 h. CXCR4+U2OS cells were trypsinized and resuspended in different concentrations of drugs in serum-free medium for 30 min before adding to the inserts at a final concentration of 10,000 cells in 300 μl medium per insert. 20 nM CXCL12 in serum-free medium as the chemo-attractant was then added to corresponding wells in the companion plate. After 16 h, the non-invaded cells on the upper surface of the inserts were removed with a cotton swab. The invaded cells were then fixed and stained by dipping the inserts into Diff-Quick solution. The images were taken by EVOS ×1 microscope. Five 20× imaging areas were randomly selected for each insert and each sample was conducted in triplicate. Statistical significance of the observed differences in cell invasion was analyzed using non-parametric ANOVA with Dunn's multiple comparison test using GraphPad InStat (v. 3.10). P<0.05 was considered significant.
To further confirm the CXCR4 antagonism of RPA and RPA/DNA polyplexes, the anti-metastatic ability was evaluated by a Matrigel cell invasion assay. […] The DNA dose used in the experiment with the polyplexes (1 μg/mL DNA) was in the range of typical doses used in transfection experiments.

[6] = Toxicity of copper complexes of P(AMD-CBA) (procedure of example 14); type: cell-based
Protocol: 20,000 cells were seeded per well in 96-well plates 24 hours ahead. The culturing medium was first removed and then replaced with 150 μL of medium containing increasing concentration of the polycations. After 24 hours, the incubation medium was removed and a mixture of 100 μL of fresh serum-free medium and 20 μL of MTS reagent solution was added to each well. The cells were incubated for at 37° C. in CO2 incubator for 2 hours. The absorbance at wavelength 505 nm was then measured to determine cell viability. IC50 values were calculated by Prism Graphpad Software.
Toxicity of polycations was also evaluated by MTS assay in Hep G2 cells and CXCR4+U2OS cells. […] Hep G2 cells were maintained in MEM supplemented with 10% FBS. Human epithelial osteosarcoma U2OS cells stably expressing human CXCR4 receptor fused to the N-terminus of enhanced green fluorescent protein were purchased form Fisher Scientific. The cells were cultured in DMEM supplemented with 2 mM L-Glutamine, 10% FBS, 1% Pen-Strep and 0.5 mg/ml G418. The cells were plated into 96-well microtiter plates at a density of 20,000 cells/well. […] After 2 h incubation, the absorbance was measured spectrophotometrically in Synergy 2 Microplate Reader (BioTek, VT) at a wavelength of 490 nm. The relative cell viability (%) was calculated as [A]sample/[A]untreated×100%.

[7] = system: CXCR4+U2OS cells; assay: Luciferase transfection in CXCR4+U2OS cells; type: cell-based, Human; settings: 100 ng/mL, serum-free medium, 4 h

Inhibition of phorbol-stimulated CXCR4 internalization [1]: do not inhibit
Decrease in EtBr fluorescence [4]: about 30%
Structure (SMILES): c1cc(CN2CCCNCCNCCCNCC2)ccc1CN1CCCNCCNCCCNCC1 [AMD3100, 1,1′-[1,4-Phenylenebis(methylene)]bis[1,4,8,11-tetraazacyclotetradecane]]
Effect on CXCL12-induced calcium signaling (CXCR4-mediated) [2]: strong antagonistic effect; also recorded: CXCL12 antagonists
Transfection level [3]: only background levels of transfection
Blocked invasion (% of cells) [5]: 75%

Structure (SMILES): [Cl][Cu][Cl] [CuCl2]
Toxicity with increasing copper content [6]: No toxicity

Structure (SMILES): CCCCCCCCCCCCCC(=O)O[C@@H]1[C@@H](C)[C@@]2(O)[C@@H](C=C(CO)C[C@]3(O)C(=O)C(C)=C[C@@H]23)[C@@H]2C(C)(C)[C@]12OC(C)=O [PMA, phorbol 12-myristate 13-acetate]
Cytotoxicity under the transfection conditions [7]: No cytotoxicity
